From PubChem BioAssay AID248 (DTP/NCI, 2004)
“And” between values parts separate entries of the source, which are not always exact repeats. Equal entries are not always repeated. Inconclusive results and toxic doses are left out.

Tested on: L1210 leukemia ip in BDF1 mice, survival T/C
Experiment: NCI In Vivo Anticancer Drug Screen. Data for tumor model L1210 Leukemia (intraperitoneal) in B6D2F1 (BDF1) mice
Settings: endpoint: mean survival time, higher = longer survival
Outline: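 Tumor cells were implanted, animals were treated, and survival was followed. The result divides the treated measurement by the vehicle-control measurement.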

[1] = dose: 100.0 mg/kg/injection, schedule: Q04DX002 (ip), vehicle: Klucel (hydroxypropylcellulose) (HPC)
[2] = dose: 100.0 mg/kg/injection, schedule: Q04DX003 (ip), vehicle: saline with Tween-80
[3] = dose: 200.0 mg/kg/injection, schedule: Q04DX002 (ip), vehicle: Klucel (hydroxypropylcellulose) (HPC)
[4] = dose: 200.0 mg/kg/injection, schedule: Q04DX003 (ip), vehicle: saline with Tween-80
[5] = dose: 400.0 mg/kg/injection, schedule: Q04DX002 (ip), vehicle: Klucel (hydroxypropylcellulose) (HPC)
[6] = dose: 100.0 mg/kg/injection, schedule: Q01DX009 (ip), vehicle: Klucel (hydroxypropylcellulose) (HPC)
[7] = dose: 100.0 mg/kg/injection, schedule: Q04DX003 (ip), vehicle: Klucel (hydroxypropylcellulose) (HPC)
[8] = dose: 200.0 mg/kg/injection, schedule: Q01DX009 (ip), vehicle: Klucel (hydroxypropylcellulose) (HPC)
[9] = dose: 200.0 mg/kg/injection, schedule: Q04DX003 (ip), vehicle: Klucel (hydroxypropylcellulose) (HPC)
[10] = dose: 400.0 mg/kg/injection, schedule: Q01DX009 (ip), vehicle: Klucel (hydroxypropylcellulose) (HPC)
[11] = dose: 400.0 mg/kg/injection, schedule: Q04DX003 (ip), vehicle: Klucel (hydroxypropylcellulose) (HPC)
[12] = dose: 100.0 mg/kg/injection, schedule: Q01DX009 (ip), vehicle: saline with Tween-80
[13] = dose: 200.0 mg/kg/injection, schedule: Q01DX009 (ip), vehicle: saline with Tween-80
[14] = dose: 400.0 mg/kg/injection, schedule: Q04DX003 (ip), vehicle: saline with Tween-80
[15] = dose: 100.0 mg/kg/injection, schedule: Q01DX009 (ip), vehicle: saline
[16] = dose: 100.0 mg/kg/injection, schedule: Q04DX003 (ip), vehicle: saline
[17] = dose: 200.0 mg/kg/injection, schedule: Q01DX009 (ip), vehicle: saline
[18] = dose: 200.0 mg/kg/injection, schedule: Q04DX003 (ip), vehicle: saline
[19] = dose: 400.0 mg/kg/injection, schedule: Q01DX009 (ip), vehicle: saline
[20] = dose: 400.0 mg/kg/injection, schedule: Q04DX003 (ip), vehicle: saline

O=C(O)C1C2OC(C(Br)C2Br)C1C(=O)O (centres undefined)
T/C [1]: 106 % of control
T/C [2]: 93 % of control
T/C [3]: 98 % of control
T/C [4]: 95 % of control
T/C [5]: 95 % of control

CC(=O)Oc1cccc2cc3cc(C)cc(OC(C)=O)c3c(OC(C)=O)c12
T/C (dose: 0.5 mg/kg/injection, schedule: Q01DX001 (ip), vehicle: saline): 106 % of control
T/C (dose: 1.0 mg/kg/injection, schedule: Q01DX001 (ip), vehicle: saline): 104 % of control
T/C (dose: 2.0 mg/kg/injection, schedule: Q01DX001 (ip), vehicle: saline): 108 % of control
T/C (dose: 4.0 mg/kg/injection, schedule: Q01DX001 (ip), vehicle: saline): 110 % of control
T/C (dose: 5.0 mg/kg/injection, schedule: Q01DX001 (ip), vehicle: saline): 108 % of control
T/C (dose: 8.0 mg/kg/injection, schedule: Q01DX001 (ip), vehicle: saline): 116 % of control

Cc1ccc(S(=O)(=O)OCCCCOS(=O)(=O)c2ccc(C)cc2)cc1
T/C [6]: 99 % of control
T/C [7]: 91 % of control
T/C [8]: 89 % of control
T/C [9]: 100 % of control
T/C [10]: 100 % of control
T/C [11]: 105 % of control

Nc1nc(I)c2[nH]cnc2n1
T/C (dose: 25.0 mg/kg/injection, schedule: Q01DX Z (ip), vehicle: methylcellulose (MC)): 95 % of control
T/C (dose: 50.0 mg/kg/injection, schedule: Q01DX Z (ip), vehicle: methylcellulose (MC)): 103 % of control
T/C (dose: 100.0 mg/kg/injection, schedule: Q01DX Z (ip), vehicle: methylcellulose (MC)): 108 % of control

CC(=O)OCC(CCC(C)C)=C(C)C
T/C [12]: 98 % of control
T/C [2]: 97 % of control
T/C [13]: 98 % of control
T/C [4]: 92 % of control
T/C (dose: 400.0 mg/kg/injection, schedule: Q01DX009 (ip), vehicle: saline with Tween-80): 102 % of control
T/C [14]: 92 % of control

CC(C)(N)COS(=O)(=O)O
T/C [15]: 106 % of control
T/C [16]: 101 % of control
T/C [17]: 96 % of control
T/C [18]: 114 % of control
T/C [19]: 105 % of control
T/C [20]: 96 % of control

CCCCOc1ccc(C(=O)N/N=C\c2cc(OC)c(OC)c(OC)c2)cc1
T/C [7]: 94 % of control
T/C [9]: 94 % of control
T/C [11]: 91 % of control

Cc1ccc(S(=O)(=O)N(C)c2ccc(N(C)S(=O)(=O)c3ccc(C)cc3)cc2)cc1
T/C [7]: 97 % of control
T/C [9]: 97 % of control
T/C [11]: 97 % of control

ClCCN(CCCl)c1ccc(CNCCCNCc2ccc(N(CCCl)CCCl)cc2Cl)c(Cl)c1
T/C (dose: 50.0 mg/kg/injection, schedule: Q01DX001 (ip), vehicle: carboxymethylcellulose (CMC)): 93 % of control

CCOP(=S)(N1CCNCC1)N1CCNCC1
T/C (dose: 75.0 mg/kg/injection, schedule: Q01DX001 (ip), vehicle: saline): 90 % of control
T/C (dose: 75.0 mg/kg/injection, schedule: Q01DX009 (ip), vehicle: Klucel (hydroxypropylcellulose) (HPC)): 95 % of control
T/C (dose: 150.0 mg/kg/injection, schedule: Q01DX001 (ip), vehicle: saline): 92 % of control
T/C (dose: 150.0 mg/kg/injection, schedule: Q01DX009 (ip), vehicle: Klucel (hydroxypropylcellulose) (HPC)): 120 % of control
T/C (dose: 300.0 mg/kg/injection, schedule: Q01DX001 (ip), vehicle: saline): 100 % of control

COC(=O)c1ncn(/C=C/c2ccccc2)c1C(=O)O
T/C [7]: 92 % of control
T/C [9]: 91 % of control
T/C [11]: 87 % of control

O=NN(CCCl)C(=O)Nc1cccc(Cl)c1
T/C (dose: 2.28 mg/kg/injection, schedule: Q01DX001 (ip), vehicle: carboxymethylcellulose (CMC)): 112 % of control
T/C (dose: 4.56 mg/kg/injection, schedule: Q01DX001 (ip), vehicle: carboxymethylcellulose (CMC)): 116 % of control
T/C (dose: 100.0 mg/kg/injection, schedule: Q01DX001 (ip), vehicle: carboxymethylcellulose (CMC)): 160 % of control
T/C (dose: 125.0 mg/kg/injection, schedule: Q01DX001 (ip), vehicle: carboxymethylcellulose (CMC)): 104 % of control
T/C (dose: 150.0 mg/kg/injection, schedule: Q01DX001 (ip), vehicle: carboxymethylcellulose (CMC)): 153 % of control
T/C (dose: 175.0 mg/kg/injection, schedule: Q01DX001 (ip), vehicle: carboxymethylcellulose (CMC)): 156 % of control

CCCP(=S)(C(C)C)C(C)C
T/C [2]: 103 % of control

NC(=O)CN1C(=O)C2C3CCC(C3)C2C1=O (centres undefined)
T/C [2]: 107 % of control
T/C [4]: 107 % of control
T/C [14]: 107 % of control

CCOCc1cccc(C(=O)NCCCc2c(-c3ccccc3)nc(N)[nH]c2=O)c1
T/C (dose: 36.2 mg/kg/injection, schedule: Q01DX001 (ip), vehicle: Klucel (hydroxypropylcellulose) (HPC)): 94 % of control
T/C (dose: 62.5 mg/kg/injection, schedule: Q01DX001 (ip), vehicle: Klucel (hydroxypropylcellulose) (HPC)): 105 % of control
T/C (dose: 125.0 mg/kg/injection, schedule: Q01DX001 (ip), vehicle: Klucel (hydroxypropylcellulose) (HPC)): 98 % of control

O=C(COc1ccc(Cl)cc1)Nc1ccc(I)cc1
T/C [1]: 92 % of control
T/C [3]: 100 % of control
T/C [5]: 96 % of control

Nc1c(S(=O)(=O)O)cc(Br)c2c1C(=O)c1ccccc1C2=O
T/C [15]: 92 % of control
T/C [16]: 96 % of control
T/C [17]: 95 % of control
T/C [18]: 93 % of control
T/C [19]: 101 % of control
T/C [20]: 95 % of control

SCc1c(Cl)c(Cl)c(Cl)c(Cl)c1Cl.[Hg]
T/C [7]: 93 % of control
T/C [9]: 91 % of control
T/C [11]: 93 % of control

CCCCCC(=O)O
T/C [15]: 100 % of control
T/C [17]: 98 % of control
T/C [19]: 89 % of control

Oc1cc2ccccc2cc1O
T/C (dose: 100.0 mg/kg/injection, schedule: Q04DX002 (ip), vehicle: saline with Tween-80): 104 % of control
T/C (dose: 200.0 mg/kg/injection, schedule: Q04DX002 (ip), vehicle: saline with Tween-80): 97 % of control
T/C (dose: 400.0 mg/kg/injection, schedule: Q04DX002 (ip), vehicle: saline with Tween-80): 93 % of control

CC(=O)Nc1cc(Cl)cc(Cl)c1
T/C [2]: 100 % of control
T/C [4]: 102 % of control
T/C [14]: 96 % of control

C/C=C\C1OC1(C)c1cc(=O)c2c(C)cc3c(c2o1)C(=O)c1c(O)c(C2CC(C)(N(C)C)C(OC(C)=O)C(C)O2)cc(C2CC(N(C)C)C(O)C(C)O2)c1C3=O (centres undefined)
T/C (dose: 0.35 mg/kg/injection, schedule: Q01DX009 (ip), vehicle: saline with Tween-80): 103 % of control
T/C (dose: 0.7 mg/kg/injection, schedule: Q01DX009 (ip), vehicle: saline with Tween-80): 102 % of control
T/C (dose: 1.4 mg/kg/injection, schedule: Q01DX009 (ip), vehicle: saline with Tween-80): 96 % of control
T/C (dose: 2.8 mg/kg/injection, schedule: Q01DX009 (ip), vehicle: saline with Tween-80): 88 % of control

CCCCCCCCCCCCCCCCSc1ccc2ccccc2c1
T/C [7]: 100 % of control
T/C [9]: 96 % of control
T/C [11]: 87 % of control

ClC(Cl)(Cl)C(Nc1ccccc1)Nc1ccccc1
T/C [6]: 87 % of control
T/C [7]: 94 % of control
T/C [8]: 96 % of control
T/C [9]: 90 % of control
T/C [10]: 91 % of control
T/C [11]: 92 % of control

C=C(Br)CNC(=O)C(=O)OCC
T/C (dose: 50.0 mg/kg/injection, schedule: Q01DX009 (ip), vehicle: saline with Tween-80): 97 % of control
T/C [12]: 94 % of control
T/C (dose: 132.0 mg/kg/injection, schedule: Q04DX003 (ip), vehicle: saline with Tween-80): 93 % of control
T/C [13]: 97 % of control
T/C [4]: 90 % of control
T/C (dose: 300.0 mg/kg/injection, schedule: Q04DX003 (ip), vehicle: saline with Tween-80): 96 % of control

CC(C)NNC(=O)c1cccnc1
T/C (dose: 25.0 mg/kg/injection, schedule: Q01DX009 (ip), vehicle: saline): 97 % of control and 108 % of control
T/C (dose: 50.0 mg/kg/injection, schedule: Q01DX009 (ip), vehicle: saline): 94 % of control and 103 % of control
T/C (dose: 100.0 mg/kg/injection, schedule: Q01DX001 (ip), vehicle: saline): 95 % of control
T/C [16]: 96 % of control
T/C (dose: 200.0 mg/kg/injection, schedule: Q01DX001 (ip), vehicle: saline): 96 % of control
T/C [17]: 94 % of control
T/C [18]: 98 % of control
T/C (dose: 400.0 mg/kg/injection, schedule: Q01DX001 (ip), vehicle: saline): 95 % of control
T/C [20]: 96 % of control
